Key:
[1] = system: vascular cutaneous permeability induced by snake venom PLA2 (Naja mocambique mocambique PLA2); experiment: reduction of vascular cutaneous permeability induced by snake venom PLA2; assay type: in vivo, guinea pig (male Hartley); conditions: for % Inhibition: standard drug
carrageenan paw edema = experiment: rat carrageenan paw edema; assay type: in vivo, rat (male Sprague-Dawley); conditions: po, 3 h, read-out: Oral ED50 (95% C.L.)
Protocol: The compounds in the scope of the invention are further tested in the rat carrageenan paw edema to determine their ability to inhibit the acute inflammatory response.
This assay is carried out as follows:
[…] male Sprague-Dawley rats, in groups of 6 animals are injected subcutaneously in the right paw with 0.1 ml of 1% carrageenan at zero time. Mercury plethysmographic readings (ml) of the paw made at zero time and 3 hours later. Test compounds are suspended or dissolved in 0.5% methylcellulose and given perorally 1 hour prior to carrageenan administration.
The increase in paw volume (edema in ml.) produced by the carrageenan is measured. Paw edema is calculated (3 hour volume minus zero time volume), and percent inhibition of edema is determined. Unpaired Student's t-test is used to determine statistical significance.

[2] = system: synthesis of the arachidonic acid cyclooxygenase oxidation product TxB2; experiment: inhibition of TxB2 synthesis (cyclooxygenase) by rat PMN; assay type: cell-based, rat (female Wistar); conditions: A23187 stimulated rat PMN
Protocol: Rat polymorphonuclear leukocytes (PMNs) are obtained from female Wistar rats (150-200 g) which receive an injection of 6% glycogen (10 ml i.p.). Rats are sacrificed 18-24 hours post injection by CO2 asphyxiation and the elicited cells are harvested by peritoneal lavage using physiological saline (0.9% NaCl). The exudate is centrifuged at 400×g for 10 minutes. The supernatant fluid is discarded and the cell pellet is resuspended to concentration of 2.0×10^7 cells/ml in HBSS containing Ca^++ and Mg^++ and 10 μM L-cysteine.
To 1 ml aliquots of cell suspension, test drugs or vehicle are added, then preincubated at 37° C. for 10 minutes. A23187 (1 μM) and [^3 H]-AA (3.0 μCi/ml) are then added and the samples are further incubated for 10 minutes. The reaction is terminated by centrifugation and pelleting cells. Supernatants are then analyzed by HPLC analysis on a 15 cm ×4.6 mm ID Supelcosil LC-18 (Supelco)(3M) column, using a two solvent system at a flow rate of 1.4 ml total flow as follows:
Injections: 150 μl of each supernatant is injected directly onto column and ^3 H arachidonic acid metabolites are monitored using an on-line radioactivity detector (Ramona, IN/US, Fairfield, N.J.).
Co-chromatography with standard [^3 H] leukotriene B4 (LTB4) in medium of stimulated PMN exposed to drug is compared to that found in medium of stimulated cells exposed to no drug, generating percent inhibition.
Results are expressed as percent inhibition at a given compound dose.
In this assay, the procedure of Example 13 is carried out as described. However, in order to determine cyclooxygenase activity, the samples are co-chromatographed with authentic reference [^3 H]--TxB2.
The results are calculated as in Example 13 and present below: […]

[3] = system: oxazolone-induced contact hypersensitivity in the mouse ear; experiment: oxazolone-induced contact hypersensitivity in the mouse ear; assay type: in vivo, mouse (female Swiss Webster); conditions: dosed at 1 mg/ear
Protocol: The assay of this Example measures the ability of the compound in the scope of the invention to inhibit oxazolone-induced contact hypersensitiveity in the mouse ear.
The assay is carried out as follows:
Female, Swiss Webster mice (8 weeks old) are placed into groups of 6 and the abdominal area of each is shaved. The mice are sensitized to oxazolone (4-ethoxymethylene-2-phenyl-oxazol-5-one) by applying 100 μl of a 2% solution in 95% alcohol directly onto the shaved abdomen using an automatic pipette and rubbing the residual oxaxolone into the skin with a round wooden stick. Six days after sensitization each mouse is challenged by applying 20 μl if a 2% oxazolone solution in 95% alcohol to the right ear (10 μl of alcohol alone to the left ear. Compounds for topical applications are prepared in acetone and administered to the right ear 30 min after challenge or 30 min prior to and 5 h after challenge; acetone (vehicle) is applied to the left ear. Compounds for oral administration are suspended in 0.5 ml of 0.5% methyl cellulose and given ten min prior to challenge. Ear thickness of both ears is measured in mm×10^- 2 at 24 and 48 h after challenge using an Oditest caliper. Edema is calculated by subtracting the left ear thickness from the right ear thickness. Drug effects are determined by calculating the percentage change from control for each time period.

With `COC(=O)C1(C(F)=CCCCOc2ccc(Cl)cc2)CO1` (stereo not drawn) [6 (fluoro-vinyl compound), 2-[5-(4-Chlorophenoxy)-1-fluoro-1-pentenyl]-2-oxiranecarboxylic acid methyl ester] the “% Inhibition, iv at 100 mg/kg” value [1] was 32%.
Compound `CC(=O)Oc1ccccc1C(=O)O` [Aspirin] has an ED50 (carrageenan paw edema) of 145 mg/kg.
`NC1=NN(c2cccc(C(F)(F)F)c2)CC1` [BW 755c] was tested, and the “% Inhibition” value ([1]; 200 mg/kg p.o.) was 65.3%.
In the case of `CN(C)CCC(c1ccc(Cl)cc1)c1ccccn1` (stereo not drawn) [Chlorpheniramine], the “% Inhibition” value ([1]; 2 mg/kg p.o.) is reported as 45.0%.
`C[C@@H]1C[C@H]2[C@@H]3CCC4=CC(=O)C=C[C@]4(C)[C@@]3(F)[C@@H](O)C[C@]2(C)[C@@]1(O)C(=O)CO` [Dexamethasone] was tested, and the “% Inhibition” value ([1]; 10 mg/kg p.o.) was 49.0%.
With `COC(=O)C1(C(=O)CCCCOc2ccc(Cl)cc2)CO1` (stereo not drawn) [Example 6A, 2-[5-(4-Chlorophenoxy)-1-oxopentyl]-2-oxiranecarboxylic acid methyl ester] the inhibition at 10 µM [2] was 30%.
`COC(=O)C1(C(=O)CCCCc2ccccc2)CO1` (stereo not drawn) [Example 9, 2-(5-Phenyl-1-oxopentyl)-2-oxiranecarboxylic acid methyl ester] was tested, and the inhibition at 10 µM [2] was 1% and the “% Inhibition” value [3] was 22.0%.
In the case of `CCOC(=O)C1(CCCCCc2ccc(Cl)cc2)CO1` (stereo not drawn) [Example 10, 2-[5-(4-Chlorophenyl)pentyl]-2-oxiranecarboxylic acid ethyl ester], the “% Inhibition, iv at 100 mg/kg” value [1] is reported as 24.1% and the inhibition at 10 µM [2] is reported as 4%.
For `COc1ccc2c(c1)c(CC(=O)O)c(C)n2C(=O)c1ccc(Cl)cc1` [Indomethacin], the “% Inhibition” value ([1]; 50 mg/kg p.o.) was 15.0% and the ED50 (carrageenan paw edema) was 3.7 mg/kg.

From patent US4933365A, “Phospholipase A2 inhibitors” (American Home Products Corporation, priority 1989, dated 1990)
